Test results from PubChem BioAssay (NCI).
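Compound exposure: 48 hours, 5 concentrations, 96-well plates. GI50 = concentration required for 50% inhibition of growth. Definition used: TGI = concentration required for complete inhibition of growth.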

Legend:
Assay in all cases: NCI anticancer screen, dose series, 48 h
HOP-62 NSCLC = tested on: HOP-62 NSCLC
IGROV1 ovarian = tested on: IGROV1 ovarian
LOX IMVI melanoma = tested on: LOX IMVI melanoma
MCF7 breast = tested on: MCF7 breast
NCI-H23 lung = tested on: NCI-H23 lung
OVCAR-8 ovarian = tested on: OVCAR-8 ovarian
RPMI-8226 leukemia = tested on: RPMI-8226 leukemia
SW-620 colon = tested on: SW-620 colon
TK-10 renal = tested on: TK-10 renal
UACC-62 melanoma = tested on: UACC-62 melanoma

Compound | TGI (HOP-62 NSCLC) | TGI (IGROV1 ovarian) | TGI (LOX IMVI melanoma) | TGI (MCF7 breast) | TGI (NCI-H23 lung) | TGI (OVCAR-8 ovarian) | TGI (RPMI-8226 leukemia) | TGI (SW-620 colon) | TGI (TK-10 renal) | TGI (UACC-62 melanoma) | GI50 (HOP-62 NSCLC) | GI50 (IGROV1 ovarian) | GI50 (LOX IMVI melanoma) | GI50 (MCF7 breast) | GI50 (NCI-H23 lung) | GI50 (OVCAR-8 ovarian) | GI50 (RPMI-8226 leukemia) | GI50 (SW-620 colon) | GI50 (TK-10 renal) | GI50 (UACC-62 melanoma)
O=C(O)COc1ccc(C(=O)/C(SS/C(C(=O)c2ccc(OCC(=O)O)c(Cl)c2Cl)=C2\C=C(c3ccc(Br)cc3)SS2)=C2/C=C(c3ccc(Br)cc3)SS2)c(Cl)c1Cl | 54.1 µM | 23.1 µM | 13.7 µM | 13.2 µM | 21.3 µM | > 76 µM | 18.2 µM | 31.2 µM | > 100 µM | 19.3 µM |  |  |  |  |  |  |  |  |  | 
COc1cccc(C2C(C#N)=C(N)Oc3c2ccc2ccccc32)c1 (centres undefined) | 16.2 µM | 14.3 µM | 10.8 µM | 12.8 µM | 6.74 µM | 19.2 µM | 3.22 µM | 17.8 µM | 27.3 µM | 19.8 µM | 0.0203 µM | 0.0205 µM | < 0.0164 µM | < 0.01 µM | 0.026 µM | 0.0346 µM | < 0.019 µM | < 0.015 µM | 5.71 µM | < 0.01 µM
OCc1ccc(N2CCCC2)cc1Cl | > 100 µM | 2 µM | > 100 µM | > 61.9 µM | > 100 µM | > 100 µM | > 84.5 µM | > 100 µM | 0.556 µM | 4.28 µM | 10.2 µM | 0.452 µM | > 86.9 µM | 1.95 µM | 27.5 µM | 46 µM | 6.22 µM | 10.7 µM | 0.201 µM | 0.879 µM
O=S(=O)(NC1=NCCN1C(=S)SN1CCn2c1nsc2=S)c1cccc(OC(F)(F)F)c1 | 20.3 µM | 46.6 µM | 12.4 µM | 17.2 µM | 32.1 µM | 65.1 µM | 4.44 µM | > 100 µM | 29.7 µM | 21.6 µM | 8 µM | 9.86 µM | 3.71 µM | 4.17 µM | 12.8 µM | 11 µM | 2.06 µM | 6.7 µM | 13.8 µM | 9.68 µM
Nc1n[nH]c2ccc([C@@H]3Nc4cc5[nH]ncc5cc4[C@H]4C5CCC(C5)[C@@H]34)cc12 (some centres undefined) | 98 µM | 41.8 µM | 74.8 µM | > 80.8 µM | > 71.7 µM | > 100 µM | 12.6 µM | > 100 µM | > 95.9 µM | 17.4 µM | 0.689 µM | 0.533 µM | 0.659 µM | 0.384 µM | 0.472 µM | 0.511 µM | 0.354 µM | 0.392 µM | 17.2 µM | 0.272 µM
COc1cccc(CC(C)=C(c2ccc(OCCCN(C)C)cc2)c2ccc(OCCCN(C)C)cc2)c1 | 1.1 µM | 1.19 µM | 0.807 µM | 0.859 µM | 6.31 µM | 1.8 µM | 1.29 µM | 0.867 µM | 3.01 µM | 0.835 µM | 0.501 µM | 0.549 µM | 0.428 µM | 0.441 µM | 2.87 µM | 0.645 µM | 0.55 µM | 0.434 µM | 1.35 µM | 0.457 µM
CC/C=C\C/C=C/C=C1/C(=O)C=C[C@@H]1C/C=C\CCCC(=O)OC | 5.73 µM | 10.2 µM | 1.79 µM | 12.5 µM | 4.45 µM | > 100 µM | 12.8 µM | 7.68 µM | 15.4 µM | 5.17 µM | 2.45 µM | 2.95 µM | 0.417 µM | 0.5 µM | 1.9 µM | 2.75 µM | 2.46 µM | 1.11 µM | 4.13 µM | 2.24 µM
Cn1nnc2c(C(N)=O)ncn2c1=O | > 100 µM | > 100 µM | > 100 µM | > 100 µM | > 100 µM | > 100 µM | > 100 µM | > 100 µM | > 100 µM | > 100 µM |  |  |  |  |  |  |  |  |  | 
O=C(NN1C(=O)CSC1c1ccc(F)cc1)C(O)c1ccccc1 (centres undefined) | > 100 µM | > 100 µM | > 100 µM | > 100 µM |  | > 100 µM | > 100 µM | > 100 µM | > 100 µM | > 100 µM | > 100 µM | > 100 µM | > 100 µM | > 100 µM |  | > 100 µM | 44.4 µM | > 100 µM | > 100 µM | 80.2 µM
NNc1c2ccccc2nc2ccccc12 | 79 µM | 20.8 µM | 22.4 µM | 33.7 µM | 33 µM | 30.7 µM | 17.4 µM | 27.4 µM | 26.7 µM | 19.3 µM | 5.56 µM | 3.07 µM | 3.62 µM | 3.77 µM | 1.37 µM | 5.09 µM | 0.558 µM | 4.06 µM | 8.32 µM | 3.44 µM
CC(=O)OC(C)C(OC(C)=O)C(OC(C)=O)C(/C=C/C1CC=CC(=O)O1)OC(C)=O (centres undefined) | > 100 µM | > 100 µM | > 100 µM | > 100 µM | 98 µM | 89.2 µM | 83.5 µM | 46.3 µM | > 100 µM | 67.8 µM | 37.8 µM | 32 µM | 29.1 µM | 33.6 µM | 31.3 µM | 26.8 µM | 26.7 µM | 16.1 µM | 40.6 µM | 25.4 µM
NCCC(=O)NC(Cc1cnc[nH]1)C(=O)O (centres undefined) | > 100 µM | > 100 µM | > 100 µM | > 100 µM | > 100 µM | > 100 µM | > 100 µM | > 100 µM | > 100 µM |  |  |  |  |  |  |  |  |  |  | 
CC(=O)C12C[C@](C#N)(N3CCCCCC3)C1C=Cc1ccccc12 (some centres undefined) | > 100 µM | > 100 µM |  | > 100 µM | > 100 µM | > 100 µM | > 100 µM | > 100 µM | > 100 µM | > 100 µM |  |  |  |  |  |  |  |  |  | 
CCN(C(=O)CN1CCN(c2cc3c(cc2F)c(=O)c(C(=O)O)cn3CC)CC1)c1nc(-c2ccccc2)cs1 | > 100 µM | > 100 µM | > 100 µM | > 100 µM | > 100 µM | > 100 µM | > 100 µM | > 100 µM | > 100 µM |  | 0.345 µM | 0.419 µM | 0.325 µM | 0.295 µM | 0.315 µM | 0.364 µM | 0.344 µM | 0.412 µM | 0.408 µM | 
